Test results: patent US20040122089A1, “Novel eicosanoid analgesics” (priority 2001, published 2004)
Read-outs that look alike come from different tables or passages of the source.

How the values were obtained:
[1] = target: T1, CB2 receptors (Rattus norvegicus, UniProt Q9QZN9); assay: CB2 binding, displacement of [3H]WIN55,212-2 from rat spleen membranes
T1 construct: rat spleen membranes, which contain mostly CB2 receptors; from tissue; host or cells: rat spleen membranes
T1 sequence (Q9QZN9 1-360): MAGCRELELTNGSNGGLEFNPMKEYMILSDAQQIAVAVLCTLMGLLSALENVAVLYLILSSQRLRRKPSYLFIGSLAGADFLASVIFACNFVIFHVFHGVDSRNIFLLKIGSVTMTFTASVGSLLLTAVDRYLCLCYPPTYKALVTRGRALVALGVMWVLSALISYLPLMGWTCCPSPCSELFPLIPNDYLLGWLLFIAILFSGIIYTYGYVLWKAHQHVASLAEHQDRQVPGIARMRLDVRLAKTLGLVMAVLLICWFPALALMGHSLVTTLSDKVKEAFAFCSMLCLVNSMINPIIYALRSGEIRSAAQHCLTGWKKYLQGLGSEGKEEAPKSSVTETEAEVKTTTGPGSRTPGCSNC
Protocol: (§1) For CB1 receptor binding, [^3H]CP-55,940 (Kd=[…]) was incubated with P2 membranes from whole rat brains as described in Compton et al., J. Pharm. Exp. Ther. 265:218-226 (1993). Displacement curves were generated by incubating drugs with 1 nM of [^3H]CP-55,940. The assays were performed in triplicate, and the results represent the combined data from three individual experiments. A separate set of experiments were conducted in which phenylmthylsulfonylfluoride (PMSF) was added at a concentration of 100 μm in order to prevent possible metabolism of the analogs. CB2 binding assays were performed as described in Melek et al., ibid. In all cases, Ki values were calculated applying the Cheng-Prusoff equation to the IC50 values (obtained by GraphPad) for the displacement of the bound radioligand by increasing concentrations of the test compounds.
(§2) In Table 1, affinity for CB1 and CB2 receptors was measured in displacement assays carried out using rat brain or spleen membranes and [^3H]CP 55,940 or […], respectively. Potency at human VR1 was established by measuring the stimulatory activity of the compounds on the Ca^2+ intracellular concentration in HEK cells transfected with cDNA encoding the human VR1 receptor. Efficacy at VR1 was measured by expressing the effect of a maximal concentration of each compound (usually 10 μM) as percent of the maximal possible effect obtained with 4 μM ionomycin. Data are means ±SEM of at least n=3 separate determinations. *Ki was determined in the presence of PMSF.
The hydroxy analog is much less CB1 vs. CB2 selective in both series.

[2] = system: anandamide membrane transporter (AMT); type: cell-based, rat; conditions: [14C]AEA uptake, RBL-2H3 cells
Protocol: (§3) The effect of compounds on the enzymatic hydrolysis of [^14C] AEA (6 μM) was studied by using membranes prepared from N18TG2 cells incubated with increasing concentrations of compounds in 50 mM Tris-HCL, pH 9, for 30 min at 37° C. [^14C] Ethanolamine produced from [^14C] AEA hydrolysis was quantified by scintillation spectroscopy and used to measure fatty acid amide hydrolase (FAAH) activity. The effect of compounds on the uptake of AEA by RBL-2H3 cells was studied with a procedure analogous to that described in Melck, ibid., and modified as described in Hilliard et al., J. Neurochem. 69:631-638 (1997). Cells were incubated with [^14C] AEA (4μM) for 5 min. at 37° C., in the presence or absence of varying concentrations of the inhibitors. Residual [1^4C] AEA in the incubation media after extraction with CHCl3/CH30H (2:1 by volume) was used as a measure of the AEA that was taken up by cells.
In consideration of the potent inhibition of the AMT previously observed with arvanil and its derivatives (see Melck, ibid), the seven compounds were also tested for their inhibitory effect on [^4C] […] Thus, the results in Table 1 confirm the existence of a partial overlap between the ligand recognition properties of VR1 receptors and the AMT (14.24).

[3] = target: T2, fatty acid amide hydrolase (FAAH) (Mus musculus, UniProt O08914); assay: [14C]AEA hydrolysis by N18TG2 cell membranes; type: biochemical
T2 construct: membranes prepared from N18TG2 cells; endogenous in cells; host or cells: N18TG2 cell membranes
T2 sequence (O08914 1-579): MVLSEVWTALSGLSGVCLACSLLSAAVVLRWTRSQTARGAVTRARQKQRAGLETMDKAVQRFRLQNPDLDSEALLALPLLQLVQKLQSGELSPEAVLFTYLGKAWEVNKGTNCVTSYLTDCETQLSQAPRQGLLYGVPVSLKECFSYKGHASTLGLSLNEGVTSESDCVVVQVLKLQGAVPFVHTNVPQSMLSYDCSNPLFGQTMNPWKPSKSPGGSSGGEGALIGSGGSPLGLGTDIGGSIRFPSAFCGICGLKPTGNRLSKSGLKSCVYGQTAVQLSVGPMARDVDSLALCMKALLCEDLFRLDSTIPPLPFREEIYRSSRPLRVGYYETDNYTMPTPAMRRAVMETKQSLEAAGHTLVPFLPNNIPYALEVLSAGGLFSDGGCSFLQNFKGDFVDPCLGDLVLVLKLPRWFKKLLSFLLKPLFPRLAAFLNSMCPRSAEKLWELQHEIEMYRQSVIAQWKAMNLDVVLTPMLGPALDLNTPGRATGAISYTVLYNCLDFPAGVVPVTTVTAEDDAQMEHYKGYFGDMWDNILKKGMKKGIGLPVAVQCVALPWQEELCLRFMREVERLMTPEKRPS
Protocol: as §3
Accordingly, when the compounds were tested for their capability of inhibiting [^14C] […] This is in agreement with previous observations that Me-AEA, DMH-derivatives of AEA and arvanil are poor substrates for FAAH. The two exceptions were O-1856 and O-1895, which did inhibit the hydrolysis of [^14C] AEA, although not very potently.

[4] = target: T3, CB1 receptors (Rattus norvegicus, UniProt P20272); assay: CB1 receptor binding, displacement of [3H]CP-55,940 from rat brain P2 membranes (Example 2); set-up: from tissue; host or cells: whole rat brain membranes; conditions: CB1 (Ki, nM), rat brain membranes
Protocol: as §1, §2

[5] = system: mice; assay: Mouse 'tetrad' of tests after i.v. administration (Example 2); conditions: Mus musculus, iv
[6] = target: T3, CB1 receptors; assay: Agonist-stimulated [35S]GTPγS binding, rat hippocampal membranes; conditions: for Emax: read-out: GTPγS binding (Emax)
[7] = target: T4, human VR1 receptor (Homo sapiens, UniProt Q8NER1); assay: Ca2+ influx (Fluo-3) in HEK-hVR1 cells (Example 2); type: cell-based; set-up: expressed in transfected cells; host or cells: HEK 293 cells (HEK-hVR1)
Protocol: N18TG2 and RBL-2H3 cells were grown as described in Melck et al, Bioch. Biophys. Res. Commun. 262:275-284 (1999). Ionomycin was purchased from Sigma. DMH-arvanil, and six substituted dimethylpentyl (DMP) derivatives of arvanil and met-AEA were synthesized as described in Example 1.
HEK-hVR1 cells were prepared and loaded as described in De Petrocellis, et al., FEBS Lett. 483:52-56 (2000). Experiments were carried out by measuring fluorescence at 25° C. […] Capsazepine (1-5 μM) was added 30 minu. Before the test compounds.
as §2

[8] = system: AMT; type: cell-based, rat; conditions: [14C]AEA uptake, RBL-2H3 cells; read-out: AEA transport (IC50)
Protocol: AEA. Cells were incubated with [^14C] AEA for 5 min at 37° C., in the presence or absence of varying concentrations of the inhibitors. Residual [^14C] AEA in the incubation media after extraction with CHCl3/CH3OH 2:1 (by vol.), determined by scintillation counting of the lyophilized organic phase, was used as a measure of the AEA that was taken up by cells.
(§4) CP55940 from whole rat brain membranes.

[9] = target: T5, FAAH (Rattus norvegicus, UniProt P97612); assay: Fatty acid amide hydrolase assay, rat brain membranes; type: biochemical
T5 construct: membranes prepared from frozen brains of CD rats (Charles River, France); from tissue; host or cells: brain membranes of CD rats
T5 sequence (P97612 1-579): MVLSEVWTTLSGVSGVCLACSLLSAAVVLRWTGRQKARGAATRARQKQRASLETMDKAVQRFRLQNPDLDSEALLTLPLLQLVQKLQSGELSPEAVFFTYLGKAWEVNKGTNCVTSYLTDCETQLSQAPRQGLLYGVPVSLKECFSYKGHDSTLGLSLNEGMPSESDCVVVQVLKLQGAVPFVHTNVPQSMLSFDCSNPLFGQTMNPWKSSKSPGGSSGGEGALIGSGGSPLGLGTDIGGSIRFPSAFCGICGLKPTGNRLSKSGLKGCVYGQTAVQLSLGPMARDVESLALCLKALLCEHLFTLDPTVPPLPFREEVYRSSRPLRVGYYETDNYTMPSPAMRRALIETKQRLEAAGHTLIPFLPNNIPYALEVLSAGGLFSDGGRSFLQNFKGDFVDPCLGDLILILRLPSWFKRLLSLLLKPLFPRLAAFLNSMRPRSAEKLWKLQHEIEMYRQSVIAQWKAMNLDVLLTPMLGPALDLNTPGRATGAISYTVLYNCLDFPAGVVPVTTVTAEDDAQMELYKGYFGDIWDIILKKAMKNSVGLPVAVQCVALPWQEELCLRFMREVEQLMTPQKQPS
Protocol: Fatty acid amide hydrolase assay—The effect of compounds on the enzymatic hydrolysis of AEA was studied using membranes prepared from frozen brains of CD rats (Charles River, France), incubated with the test compounds and [^14C] AEA (9 μM) in 50 mM Tris-HCl, pH 9, for 30 min at 37° C. [^14C] Ethanolamine produced from [^14C] AEA hydrolysis was measured by scintillation counting of the aqueous phase after extraction of the incubation mixture with 2 volumes of CHCl3/CH3OH 2:1 (by vol.).
as §4

[10] = system: mice; assay: Mouse tetrad of behavioral tests, i.v. (Example 3); type: in vivo; conditions: i.v.; for R.I. ED50 / Rectal temp. ED50 / Spontan. activity ED50 / Tail Flick ED50: mean (range)
Protocol: The analogs were administered to mice by tail-vein injection and evaluated for their ability to produce hypomotility, hypothermia, and antinociception. These pharmacological measures were determined in the same mouse at a time when maximal activity was present. […] A 10-sec maximum latency was used. Antinociception was expressed as % MPE as described below.
Data Analysis—For production of hypomotility and hypothermia, the data were expressed as a percentage of control activity and change in temperature, respectively. Antinociception was calculated according to the following equation.
% MPE=−((test latency-control latency)/(10s-control latency))×100
At least six animals were treated with each dose-response relationships could be determined for each analog. ED50 values were determined from least-squares unweighted linear regression analysis of log dose-response plots.
The ED50 (milligrams per kilogram, i.v.) does for inhibition of sector crossings (spontaneous activity) in an open field, antinociception (delay in seconds in the tail-flick response), decrease of rectal temperature in degrees Celsius, and induction of time spent in immobility on a ring are shown. Data are means (and ranges) of N>six animals.

[11] = target: T4, human VR1 receptor; assay: Cytosolic calcium concentration assay in HEK-hVR1 cells (Example 3); conditions: for Emax: read-out: hVR1 efficacy (maximal effect, in parentheses)
[12] = target: T3, CB1 receptors; assay: CB1 receptor binding, [3H]CP55940, whole rat brain membranes (Example 3); conditions: read-out: CB1 affinity Ki

T3 sequence (P20272 whole entry): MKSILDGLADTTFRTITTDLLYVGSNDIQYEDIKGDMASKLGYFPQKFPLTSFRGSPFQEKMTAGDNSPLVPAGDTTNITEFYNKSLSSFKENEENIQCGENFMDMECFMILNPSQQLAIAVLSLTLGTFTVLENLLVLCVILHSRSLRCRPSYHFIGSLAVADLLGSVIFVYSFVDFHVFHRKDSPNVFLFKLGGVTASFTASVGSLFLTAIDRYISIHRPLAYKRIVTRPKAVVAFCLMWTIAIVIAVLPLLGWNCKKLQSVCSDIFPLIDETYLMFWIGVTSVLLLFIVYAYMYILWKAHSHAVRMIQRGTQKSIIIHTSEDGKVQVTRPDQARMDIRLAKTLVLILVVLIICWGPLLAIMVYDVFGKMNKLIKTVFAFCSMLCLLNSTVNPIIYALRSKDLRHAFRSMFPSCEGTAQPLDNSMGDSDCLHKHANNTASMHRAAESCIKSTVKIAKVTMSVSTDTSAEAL
T4 sequence (Q8NER1 whole entry): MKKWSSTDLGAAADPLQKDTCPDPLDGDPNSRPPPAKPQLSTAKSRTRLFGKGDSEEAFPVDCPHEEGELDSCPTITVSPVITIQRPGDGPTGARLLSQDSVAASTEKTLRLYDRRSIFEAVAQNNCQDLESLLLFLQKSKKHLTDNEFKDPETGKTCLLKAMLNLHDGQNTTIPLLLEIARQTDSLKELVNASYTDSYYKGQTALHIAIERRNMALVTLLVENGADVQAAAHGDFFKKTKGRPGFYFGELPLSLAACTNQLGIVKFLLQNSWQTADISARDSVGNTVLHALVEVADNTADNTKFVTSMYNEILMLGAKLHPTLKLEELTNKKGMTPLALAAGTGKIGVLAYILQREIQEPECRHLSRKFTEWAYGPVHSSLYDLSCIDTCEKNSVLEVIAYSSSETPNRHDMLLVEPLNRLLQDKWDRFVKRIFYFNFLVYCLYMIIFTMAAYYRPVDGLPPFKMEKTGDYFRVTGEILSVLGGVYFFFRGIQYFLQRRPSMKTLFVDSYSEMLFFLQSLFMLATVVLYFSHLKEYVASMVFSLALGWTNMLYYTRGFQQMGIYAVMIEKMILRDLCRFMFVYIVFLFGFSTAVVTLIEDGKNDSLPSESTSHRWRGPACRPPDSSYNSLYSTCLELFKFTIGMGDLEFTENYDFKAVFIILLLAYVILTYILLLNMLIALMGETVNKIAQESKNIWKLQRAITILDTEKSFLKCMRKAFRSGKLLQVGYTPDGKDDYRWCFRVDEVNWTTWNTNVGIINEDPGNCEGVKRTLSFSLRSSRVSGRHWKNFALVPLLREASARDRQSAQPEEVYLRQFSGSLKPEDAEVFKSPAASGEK

Structure (SMILES)	Emax [6]	IC50 [8]	IC50 [9]	Average ED50 [10]	R.I. ED50 [10]	Rectal temp. ED50 [10]	Spontan. activity ED50 [10]	Tail Flick ED50 [10]	EC50 [11]	Emax [11]	Ki [12]	other results
COc1cc(CNC(=O)CCC/C=C\C/C=C\C/C=C\C/C=C\C(C)(C)CCCCBr)ccc1O [Compound O-1861, 20-Bromo-16,16-dimethyl-eicosa-5,8,11,14-all-cis-tetraenoic acid (4-hydroxy-3-methoxy-benzyl) amide]	32%	–	–	–	–	–	–	–	–	–	–	Ki [1]: > 10 µM; IC50 [2]: 13.5 µM; IC50 [3]: > 50 µM; Ki ([4]; determined in the presence of PMSF, [3H]CP 55,940, PMSF 100 μM): 24.3 ± 2.6 nM; Ki ([4]; [3H]CP 55,940, without PMSF): 32.6 ± 1.2 nM; ED50 ([5]; read-out: Average ED50 for the four effects): 0.068 mg/kg; ED50 ([5]; read-out: R.I. (relative immobility) ED50): 0.055 mg/kg; ED50 ([5]; read-out: R.T. (rectal temperature) ED50): 0.053 mg/kg; ED50 ([5]; read-out: S.A. (spontaneous activity) ED50): 0.06 mg/kg; ED50 ([5]; read-out: T.F. (tail-flick) ED50): 0.104 mg/kg; EC50 [6]: 0.07 µM; EC50 ([7]; VR1 (EC50, nM), Ca2+ in HEK cells with human VR1): 30 ± 0.2 nM; VR1 efficacy ([7]; maximal concentration (usually 10 μM), percent of effect of 4 μM ionomycin): 74.0 ± 4.5%
CCCCC/C=C\C/C=C\C/C=C\C/C=C\CCCC(=O)NCc1ccc(OC(=O)CCCN2CCOCC2)c(OC)c1 [Compound O-2142]	0%	30 ± 4.3 µM	9.1 ± 1.7 µM	0.17 milligrams per kilogram	0.17 (0.13-0.22) milligrams per kilogram	0.11 (0.07-0.17) milligrams per kilogram	0.20 (0.16-0.24) milligrams per kilogram	0.19 (0.15-0.25) milligrams per kilogram	0.0006 ± 0.0002 µM	86.6%	0.483 ± 0.063 µM	activity in the GTPγS binding assay [6]: inactive
CCCCC/C=C\C/C=C\C/C=C\C/C=C\CCCC(=O)NCc1cccc(OC)c1 [Compound O-1986]	0%	27.3 ± 3.5 µM	18.2 ± 2.8 µM	5.80 milligrams per kilogram	6.13 (4.79-7.83) milligrams per kilogram	6.15 (3.22-11.73) milligrams per kilogram	4.74 (3.17-7.09) milligrams per kilogram	6.15 (4.63-8.16) milligrams per kilogram	0.063 ± 0.0101 µM	68%	0.484 ± 0.017 µM	fold less potent than arvanil at hVR1 [11]: more than 100 fold
